Test results reported in article PMC10649961, “Novel Mitochondria-Targeted Amphiphilic Aminophosphonium Salts and Lipids Nanoparticles: Synthesis, Antitumor Activity and Toxicity” (Nanomaterials, 2023).

How the values were obtained:
HuTu 80 cells [1] = assay: Cell apoptosis assay, Annexin V/propidium iodide flow cytometry; format: cell-based, human; settings: HuTu 80, 48-h incubation, IC50/2 and IC50
Protocol: HuTu 80 cells at a rate of 1 × 10^6 cells/well were seeded into six-well plates and incubated until a monolayer formed for approximately 24 h. After […] of incubation, various concentrations of compounds 4b, 5b, 6a, and 8 were added to the wells.
Cells were detached with a trypsin-versene solution (1:3), suspended in PBS, and collected at 2000 rpm for 5 min. Cells were then washed twice with ice-cold PBS, followed by resuspension in binding buffer. Next, the samples were incubated with 5 μL of Annexin V Alexa Fluor 647 (Sigma-Aldrich, St. Louis, MO, USA) and 5 μL of propidium iodide for 15 min at room temperature in the dark. Finally, the cells were analyzed by flow cytometry in the Red-R (661/15 nm)—annexin and Near IR-B (785/70 nm)—PI channels on a Guava easyCyte flow cytometer (Merck Millipore, Burlington, MA, USA) for 1 h. The experiments were repeated three times.

HuTu 80 cells [2] = assay: Mitochondrial membrane potential, JC-10 flow cytometry; format: cell-based, human; settings: HuTu 80, 48-h treatment
Protocol: The cells are prepared as in the Cell Apoptosis Assay section. Cells were detached with trypsin/versene solution (1:3), suspended in PBS, collected at 2000 rpm for 5 min, then washed twice with ice-cold PBS, followed by resuspension in JC-10 (10 μg/mL) and incubation at 37 °C for 10 min. The cells were then washed three times and suspended in PBS, and JC-10 fluorescence was observed by flow cytometry (Guava Easy Cyte).
Most forms of apoptosis in mammals are realized not through cell death receptors but through the mitochondrial pathway. In this case, the outer membrane of the mitochondria breaks, and soluble proteins of the intermembrane space enter the cytoplasm. The permeability of the outer membrane of mitochondria is a finely regulated process, and its increase is a key event in triggering apoptosis. Induction of apoptosis by compounds 4b, 5b, 6a, and 8 at concentrations of IC50/2 and IC50 via the mitochondrial pathway on the HuTu 80 cell line was studied by flow cytometry using the fluorescent dye JC-10 from the Mitochondria Membrane Potential Kit.

caspase 9 = assay: Caspase 9 ELISA in cell lysates; format: cell-based, human; settings: HuTu 80 lysates, IC50/2 and IC50, compared with the control
Protocol: In vitro quantitative measurement of caspase-9 and caspase-8 was performed using ELISA kits (ELISA Kit for Caspase 9 and ELISA Kit for Caspase 8, Human Cloud-Clone Corp., Wuhan, China). The analysis was carried out according to the manufacturer’s instructions. Samples were standardized for total protein content (1 mg/mL). Protein concentration was determined with Coomassie-based assays using Bredford Dye Reagent (Bio-Rad, Hercules, CA, USA). The absorbance was measured using a microplate reader, EPOCH (BioTek Instruments, Inc., Winooski, VT, USA), at a wavelength of 450 ± 10 nm. Lysates of untreated HuTu 80 cells were used as controls.
To confirm that apoptosis induced by compounds 4b, 5b, 6a, and 8 proceeds along the internal (mitochondrial) pathway, studies were conducted to determine the enzymatic activity of the early apoptosis key markers—caspase 9 and caspase 8 using ELISA kits. The kits are sandwich enzyme immunoassays for in vitro quantitative measurement of Caspase 8 and Caspase 9 in cell lysates, rat tissue homogenates, and other biological fluids. Caspase 9 plays a key role in the mitochondrial signaling pathway of apoptosis induction. The activation of caspase 8 characterizes the external (receptor-dependent) pathway of apoptosis. HuTu 80 cells not treated with the tested compounds were used as a control.

HuTu 80 cells [3] = assay: Cell cycle analysis, propidium iodide flow cytometry; format: cell-based, human; settings: HuTu 80, IC50, 48 h, compared with the control
Protocol: The DNA content and cell-cycle distribution after compounds 4b, 5b, 6a, and 8 IC50 concentrations were estimated by flow cytometry. After washing with PBS, treated cells were suspended in 150 μL of PBS, then 0.5 mL of phosphate-citrate buffer (0.05 M, pH 4.0) was added, and the suspension was incubated at room temperature for 5 min to facilitate the extraction of low-molecular-weight DNA. Following centrifugation, the cells were resuspended in 150 μL DNA staining solution (20 μg/mL propidium iodide, 200 μg/mL […]) and incubated in the CO2 incubator (37 °C for 30 min). The distribution of the cell cycle was determined by fluorescence analysis of HuTu 80 cells stained with propidium iodide using Guava easyCyte (Guava easyCyte).

[4] = system: human volunteer donor erythrocytes; assay: Hemolytic assay; format: cell-based; settings: hemolysis in 50% of human erythrocytes, 1 h, 37 °C
Protocol: The hemolytic activity of Aminophosphonium Salts was assessed by comparing the optical density of a solution containing the test compound with the optical density of blood at 100% hemolysis. Healthy human volunteer donor erythrocytes were used as the object of the study. Red blood cells with EDTA (1.8 mg/mL) were washed three times with saline (0.9% NaCl), centrifuged for 10 min at 800× g rpm, and resuspended in saline (0.9% NaCl) to a concentration of 10%. The tested concentrations (0.1–100 μM) were prepared in physiological solution (0.9% NaCl) (with the addition of 5% DMSO). Compounds at the appropriate dilution (450 μL) were added to 50 μL of a 10% red blood cell suspension. Samples were incubated for 1 h at 37 °C and centrifuged for 10 min at 2000 rpm. The release of hemoglobin was controlled by measuring the optical density of the supernatant on an InvitroLogic microplate reader at λ = 540 nm. A control sample corresponding to zero hemolysis (blank experiment) was prepared by adding 50 μL of a 10% red blood cell suspension to 450 μL of saline (0.9% NaCl). A control sample corresponding to 100% hemolysis was prepared by adding 50 μL of a 10% red blood cell suspension to 450 μL of distilled water. Blood was taken at the Clinic of the Federal Research Center “Kazan Scientific Center of the Russian Academy of Sciences” from healthy donors with their personal consent.

PC3 = assay: cells; settings: Homo sapiens, PC-3, 48 h, read-out: Cytotoxic Effects (IC50), PC3, MTT assay, 48 h

Row | Structure (SMILES) | apoptosis-inducing effect (in words) (HuTu 80 cells [1]) | effect on mitochondrial membrane potential (in words) (HuTu 80 cells [2]) | concentration of caspase 9 (in words) (caspase 9) | effect on cell cycle (in words) (HuTu 80 cells [3]) | HC50 [4] [µM] | IC50 (PC3) [µM]
1 | CCCCCCCC[P+](N(CC)CC)(N(CC)CC)N(CC)CC [4b, Tris(diethylamino)(octyl)phosphonium iodide] | dose-dependent apoptosis | decrease in the mitochondrial membrane potential | significantly increased | significant delay of cells in the G0/G1 phase | >100 | 11.6 ± 0.9
2 | CCCCCCCCCC[P+](N(CC)CC)(N(CC)CC)N(CC)CC [4d, Decyltris(diethylamino)phosphonium iodide] | – | – | – | – | – | 7.3 ± 0.6
3 | CCCCCCCC[P+](c1ccccc1)(N(CC)CC)N(CC)CC [5b, Bis(diethylamino)(octyl)(phenyl)phosphonium iodide] | dose-dependent apoptosis | decrease in the mitochondrial membrane potential | significantly increased | significant delay of cells in the G0/G1 phase | >100 | 11.4 ± 0.9
4 | CCCCCC[P+](c1ccccc1)(c1ccccc1)N(CC)CC [6a, (Diethylamino)(hexyl)diphenylphosphonium iodide] | number of necrotic cells prevailed | decrease in the mitochondrial membrane potential | significantly increased | slight change in the cell cycle | > 100 | 4 ± 0.3
5 | CCCCCCCC[P+](c1ccccc1)(c1ccccc1)N(CC)CC [6b, (Diethylamino)(octyl)diphenylphosphonium iodide] | – | – | – | – | >100 | –
6 | CCCCCCCC[P+](c1ccccc1)(c1ccccc1)c1ccccc1 [compound 8, Octyltriphenylphosphonium iodide, reference compound] | more active in the early stage of apoptosis | decrease in the mitochondrial membrane potential | significantly increased | significant delay of cells in the G0/G1 phase | – | 0.4 ± 0.03
